Experimental data as given in patent US10377741B2, “Substituted heteroaryl aldehyde compounds and methods for their use in increasing tissue oxygenation” (Global Blood Therapeutics, Inc., priority 2011, dated 2019).

Columns and labels:
hemoglobin = hemoglobin (Homo sapiens, UniProt P68871+P69905); settings: in vitro and in vivo; cited from earlier work
human HbS = settings: transgenic mice producing human HbS, cited from earlier work
[1] = target: T1, purified Hemoglobin S (HbS) (Homo sapiens, UniProt P68871+P69905, E7V); assay: Modulation of hemoglobin oxygen affinity: oxygen equilibrium curves (HEMOX) in purified HbS; assay type: biochemical, human (homozygous sickle cell patients); settings: compound at 30 μM; 25 μM purified HbS, 45 min at 37° C.
T1 construct: HbS was purified by a modified procedure; from tissue; host or cells: blood of homozygous sickle cell patients (CHORI); for the polymerization assay purified by the CRO VIRUSYS
Procedure, shortened: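 HbS from homozygous sickle cell patient blood, 25 μM in HEMOX buffer pH 7.4, incubated 45 min at 37° C with compound (30 μM unless noted). Air-saturated then deoxygenated with N2; p50 from Hill fit; delta p50% = (control p50 − treated p50)/control p50 × 100.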

HbS/A = target: T2, HbS/A (Homo sapiens, UniProt P68871+P69905, E7V); assay: R/T assay (relaxed-to-tense transition under deoxygenated conditions); assay type: biochemical, human (homozygous sickle cell patients); settings: 3 μM HbS/A, % R remaining vs no treatment
T2 construct: A mixture of HbS/A was purified from blood; from tissue; host or cells: blood of homozygous sickle cell patients (CHORI)
Procedure, shortened: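 Purified HbS/A (3 μM final) incubated 1 hr at 37° C with compounds (3 μM to 100 μM) in potassium phosphate buffer pH 7.4 with 30 μM DPG, then deoxygenated under N2 with 300–700 nm spectra every 5 min for 2 hours. Delta R is % R state retained versus untreated, by linear regression over all wavelengths.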

whole blood = assay: Whole blood assay: oxygen equilibrium curves of whole blood; assay type: cell-based, human (homozygous sickle cell patients); settings: compound at 1000 μM; hematocrit 20%, 1 hour at 37° C.
Procedure, shortened: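 Homozygous sickle cell patient blood, hematocrit 20% in autologous plasma, incubated 1 h at 37° C with or without compound (1000 μM unless noted). Diluted into Hemox buffer pH 7.4, oxygenated then deoxygenated with nitrogen; OEC fitted to Hill model for p50, reported as delta p50%.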

purified HBS = target: T3, purified HBS (Homo sapiens, UniProt P68871+P69905, E7V); assay: Polymerization assay (delay time of HbS polymerization); assay type: biochemical, human (homozygous sickle cell patients); settings: percent delay (% DT) vs HBS alone; 50 μM purified HBS, 1.8 M potassium phosphate pH 7.4
T3 construct: HbS was purified by a modified procedure; from tissue; host or cells: blood of homozygous sickle cell patients (CHORI); for the polymerization assay purified by the CRO VIRUSYS
Method: Polymerization assays are carried out in vitro using purified HBS exchanged into 1.8 M potassium phosphate buffer at pH 7.4. Using a slightly modified protocol (Antonini and Brunori, 1971), HbS is purified by the CRO VIRUSYS, from blood obtained from homozygous sickle cell patients through the Hemoglobinopathy Center at Children's Hospital Oakland Research Institute (CHORI) with Institutional Review Board approval. Compounds are prepared in 100% DMSO and a desired amount is added to 50 μM of purified HBS at a final DMSO concentration of 0.3%. Final potassium phosphate concentration is adjusted to 1.8 M using a combination of 2.5 M potassium phosphate stock solution and water at pH 7.4. The reaction mixture is incubated for an hour at 37° C. and then transferred into a 24-well plate for deoxygenation in a glove box containing 99.5% nitrogen and 0.5% oxygen. The 24-well plate is not covered and incubated at 4° C. on a plate cooler inside the glove box for one and a half hours. Fifty μL of the reaction mixture is transferred into a 96-well plate and the absorbance at 700 nm is measured every minute for one hour at 37° C. in a plate reader located inside the glove box. A plot of the absorbance against time is fitted using a Boltzman sigmoidal fit and the delay time (from zero to time at half Vmax) is measured. To compare and rank compounds, delay times are expressed as percent delay (% DT), which is defined as the difference in delay times for HBS/compound and HBS alone multiplied by 100 and divided by the delay time for HBS alone.
Compounds listed below have been tested in the polymerization assay. Activity ranges are defined by the number of dagger (†) symbols indicated. † denotes activity ≥40% but ≤80%; †† denotes activity >80% but ≤120%; ††† denotes activity >120% but ≤140%; †††† denotes activity >160%.

Compound: Cl.O=Cc1ccncc1OCc1ccc(C(=O)O)cn1
- melting point: 192 to 194 °C

Compound: O=Cc1ccc(CO)o1 [Compound 5HMF, 5-hydroxymethyl-2-furfuraldehyde]
- hemoglobin modulator activity (hemoglobin): potent hemoglobin modulator both in vitro and in vivo
- survival times (human HbS; extreme hypoxia (5% oxygen)): significantly improved survival times
- hypoxia-induced sickled red blood cells (human HbS; hypoxic conditions, compared to the non-treated mice): reduced amounts of hypoxia-induced sickled red blood cells

Compound: COc1cc(C=O)c(OCc2cccnc2-c2ccnn2C2CCCC2)cn1 [Compound 198, 5-((2-(1-cyclopentyl-1H-pyrazol-5-yl)pyridin-3-yl)methoxy)-2-methoxyisonicotinaldehyde]
- delta p50% [1]: +++ (a delta p50% of 50 or greater)
- delta R (HbS/A; compound at 30 μM): ++ (a delta R of between 30 and 50)
- delta p50% Values for Whole Blood Assay (whole blood): +++ (a delta p50% of 50 or greater)
- % delta Delay (purified HBS): † (activity ≥40% but ≤80%)

Compound: COc1cc(C=O)c(OCc2cccnc2-c2ccnn2CCC(=O)O)cn1 [Compound 202, 3-(5-(3-(((4-formyl-6-methoxypyridin-3-yl)oxy)methyl)pyridin-2-yl)-1H-pyrazol-1-yl)propanoic acid]
- delta p50% [1]: +++ (a delta p50% of 50 or greater)
- delta R (HbS/A; compound at 9 μM): + (a delta R of between 0 and 30)
- delta p50% Values for Whole Blood Assay (whole blood): + (a delta p50% of between 0 and 29)
- % delta Delay (purified HBS): ††† (activity >120% but ≤140%)

Compound: COc1cc(C=O)c(OCc2cccnc2-c2ccnn2CC(F)(F)F)cn1 [Compound 174, 2-methoxy-5-((2-(1-(2,2,2-trifluoroethyl)-1-pyrazol-5-yl)pyridin-3-yl)methoxy)isonicotinaldehyde]
- delta p50% [1]: +++ (a delta p50% of 50 or greater)
- delta R (HbS/A; compound at 30 μM): ++ (a delta R of between 30 and 50)
- delta p50% Values for Whole Blood Assay (whole blood): +++ (a delta p50% of 50 or greater)
- % delta Delay (purified HBS): †† (activity >80% but ≤120%)

Compound: COCCOc1cc(C=O)c(OCc2cccnc2-c2ccnn2C(C)C)cn1 [Compound 180, 5-((2-(1-isopropyl-1H-pyrazol-5-yl)pyridin-3-yl)methoxy)-2-(2-methoxyethoxy)isonicotinaldehyde]
- delta p50% [1]: +++ (a delta p50% of 50 or greater)
- delta R (HbS/A; compound at 30 μM): ++ (a delta R of between 30 and 50)
- delta p50% Values for Whole Blood Assay (whole blood): +++ (a delta p50% of 50 or greater)
- % delta Delay (purified HBS): † (activity ≥40% but ≤80%)

Compound: Cc1ccc(OCc2cccnc2-c2ccnn2C(C)C)c(C=O)n1 [Compound 177, 3-((2-(1-isopropyl-1H-pyrazol-5-yl)pyridin-3-yl)methoxy)-6-methylpicolinaldehyde]
- delta p50% [1]: +++ (a delta p50% of 50 or greater)
- delta R (HbS/A; compound at 3 μM): + (a delta R of between 0 and 30)
- delta p50% Values for Whole Blood Assay (whole blood): +++ (a delta p50% of 50 or greater)
- % delta Delay (purified HBS): † (activity ≥40% but ≤80%)

Compound: COc1cc(C=O)c(OCc2cccnc2-c2ccnn2C2CCC2)cn1 [Compound 195, 5-((2-(1-cyclobutyl-1H-pyrazol-5-yl)pyridin-3-yl)methoxy)-2-methoxyisonicotinaldehyde]
- delta p50% [1]: +++ (a delta p50% of 50 or greater)
- delta R (HbS/A; compound at 30 μM): +++ (a delta R of 50 or greater)
- delta p50% Values for Whole Blood Assay (whole blood): +++ (a delta p50% of 50 or greater)
- % delta Delay (purified HBS): ††† (activity >120% but ≤140%)

Compound: COc1cc(C=O)c(OCc2nccnc2-c2ccnn2C(C)C)cn1 [Compound 181, 5-((3-(1-isopropyl-1H-pyrazol-5-yl)pyrazin-2-yl)methoxy)-2-methoxyisonicotinaldehyde]
- delta p50% [1]: +++ (a delta p50% of 50 or greater)
- delta R (HbS/A; compound at 9 μM): + (a delta R of between 0 and 30)
- delta p50% Values for Whole Blood Assay (whole blood): +++ (a delta p50% of 50 or greater)
- % delta Delay (purified HBS): ††† (activity >120% but ≤140%)

Compound: O=Cc1cc(OC(F)F)ncc1OCc1cccn2ccnc12 [Compound 158, 2-(difluoromethoxy)-5-(imidazo[1,2-a]pyridin-8-ylmethoxy)isonicotinaldehyde]
- delta p50% [1]: ++ (a delta p50% of between 30 and 50)
- delta R (HbS/A; compound at 9 μM): + (a delta R of between 0 and 30)
- delta p50% Values for Whole Blood Assay (whole blood): + (a delta p50% of between 0 and 29)
- % delta Delay (purified HBS): † (activity ≥40% but ≤80%)

Compound: COc1cc(C=O)c(OCc2cccn3ccnc23)cn1 [Compound 5]
- delta p50% [1]: ++ (a delta p50% of between 30 and 50)
- delta R (HbS/A; compound at 30 μM): ++ (a delta R of between 30 and 50)
- delta p50% Values for Whole Blood Assay (whole blood): + (a delta p50% of between 0 and 29)
- % delta Delay (purified HBS): † (activity ≥40% but ≤80%)

Compound: Cc1ccc(OCc2ccc(C(=O)O)cc2)c(C=O)n1 [Compound 165, 4-(((2-formyl-6-methylpyridin-3-yl)oxy)methyl)benzoic acid]
- delta p50% [1]: ++ (a delta p50% of between 30 and 50)
- delta R (HbS/A; compound at 9 μM): + (a delta R of between 0 and 30)
- delta p50% Values for Whole Blood Assay (whole blood): + (a delta p50% of between 0 and 29)
- % delta Delay (purified HBS): ††† (activity >120% but ≤140%)

Compound: COc1cc(C=O)c(OCc2cccnc2-c2cccnc2OC)cn1 [Compound 163, 2-methoxy-5-((2′-methoxy-[2,3′-bipyridin]-3-yl)methoxy)isonicotinaldehyde]
- delta p50% [1]: +++ (a delta p50% of 50 or greater)
- delta R (HbS/A; compound at 30 μM): ++ (a delta R of between 30 and 50)
- delta p50% Values for Whole Blood Assay (whole blood): +++ (a delta p50% of 50 or greater)
- % delta Delay (purified HBS): †† (activity >80% but ≤120%)

Compound: CCCn1nccc1-c1ncccc1COc1cnc(OC)cc1C=O [Compound 173, 2-methoxy-5-((2-(1-propyl-1H-pyrazol-5-yl)pyridin-3-yl)methoxy)isonicotinaldehyde]
- delta p50% [1]: +++ (a delta p50% of 50 or greater)
- delta R (HbS/A; compound at 30 μM): +++ (a delta R of 50 or greater)
- delta p50% Values for Whole Blood Assay (whole blood): +++ (a delta p50% of 50 or greater)
- % delta Delay (purified HBS): † (activity ≥40% but ≤80%)

Compound: CS(=O)(=O)NC(=O)c1ccc(COc2cnccc2C=O)nc1 [Compound 206, 2,2,2-trifluoroacetic acid:6-(((4-formylpyridin-3-yl)oxy)methyl)-N-(methylsulfonyl)nicotinamide (2:1)]
- delta R (HbS/A; compound at 9 μM): + (a delta R of between 0 and 30)
- delta p50% Values for Whole Blood Assay (whole blood): +++ (a delta p50% of 50 or greater)
- % delta Delay (purified HBS): ††† (activity >120% but ≤140%)
- melting point: 102 to 104 °C
